Experimental data: ChEMBL document CHEMBL1201861, “Genomics of Drug Sensitity in Cancer screening data, Wellcome Trust Sanger Institute”

Experiments:
TE-15 = assay: cells; assay type: functional, cell-based, Homo sapiens; settings: Homo sapiens, TE-15;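 note: cell viability readout of growth inhibition in TE-15 cells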
Description: SANGER: Inhibition of human TE-15 cell growth in a cell viability assay.

OPM-2 = assay: cells; assay type: functional, cell-based, Homo sapiens; settings: Homo sapiens, OPM-2;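 note: growth of OPM-2 cells measured with a viability assay, IC50 for suppression of proliferation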
Description: SANGER: Inhibition of human OPM-2 cell growth in a cell viability assay.

SJRH30 = assay: cells; assay type: functional, cell-based; settings: Homo sapiens;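 note: growth inhibition of human SJRH30 cells, read out with a cell viability assay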
Description: SANGER: Inhibition of human SJRH30 cell growth in a cell viability assay.

PANC-03-27 = assay: cells; assay type: functional, cell-based; settings: Homo sapiens
Description: SANGER: Inhibition of human PANC-03-27 cell growth in a cell viability assay.

HCC1419 = assay: cells; assay type: functional, cell-based; settings: Homo sapiens;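 note: growth inhibition of human HCC1419 cells, read out as cell viability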
Description: SANGER: Inhibition of human HCC1419 cell growth in a cell viability assay.

SN12C = assay: cells; assay type: functional, cell-based; settings: Homo sapiens;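 note: growth inhibition of human SN12C cells, measured by a cell viability assay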
Description: SANGER: Inhibition of human SN12C cell growth in a cell viability assay.

ESS-1 = assay: cells; assay type: functional, cell-based; settings: Homo sapiens;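 note: growth inhibition of human ESS-1 cells, read out by a cell viability assay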
Description: SANGER: Inhibition of human ESS-1 cell growth in a cell viability assay.

NCI-H2171 = assay: cells; assay type: functional, cell-based, Homo sapiens; settings: Homo sapiens, NCI-H2171;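 note: growth inhibition of human NCI-H2171 cells, read out by a cell viability assay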
Description: SANGER: Inhibition of human NCI-H2171 cell growth in a cell viability assay.

COLO-679 = assay: cells; assay type: functional, cell-based; settings: Homo sapiens
Description: SANGER: Inhibition of human COLO-679 cell growth in a cell viability assay.

KYSE-180 = assay: cells; assay type: functional, cell-based; settings: Homo sapiens;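 note: growth inhibition of KYSE-180 cells, read out with a cell viability assay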
Description: SANGER: Inhibition of human KYSE-180 cell growth in a cell viability assay.

NCI-H1563 = assay: cells; assay type: functional, cell-based; settings: Homo sapiens;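 note: growth inhibition of human NCI-H1563 cells, read out with a cell viability assay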
Description: SANGER: Inhibition of human NCI-H1563 cell growth in a cell viability assay.

MC-CAR = assay: cells; assay type: functional, cell-based, Homo sapiens; settings: Homo sapiens, MC-CAR;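 note: growth inhibition of the human MC-CAR cell line, read out by a cell viability assay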
Description: SANGER: Inhibition of human MC-CAR cell growth in a cell viability assay.

CAL-12T = assay: cells; assay type: functional, cell-based; settings: Homo sapiens;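 note: growth inhibition of human CAL-12T cells, read out with a cell viability assay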
Description: SANGER: Inhibition of human CAL-12T cell growth in a cell viability assay.

SW756 = assay: cells; assay type: functional, cell-based; settings: Homo sapiens;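 note: growth inhibition of human SW756 cells, read out with a cell viability assay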
Description: SANGER: Inhibition of human SW756 cell growth in a cell viability assay.

AN3-CA = assay: cells; assay type: functional, cell-based; settings: Homo sapiens;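 note: growth inhibition of human AN3-CA cells measured by a cell viability assay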
Description: SANGER: Inhibition of human AN3-CA cell growth in a cell viability assay.

DBTRG-05MG = assay: cells; assay type: functional, cell-based; settings: Homo sapiens;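 note: cell viability assay measuring growth inhibition of human DBTRG-05MG cells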
Description: SANGER: Inhibition of human DBTRG-05MG cell growth in a cell viability assay.

AGS = assay: cells; assay type: functional, cell-based; settings: Homo sapiens;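 note: growth inhibition of AGS cells, determined with a cell viability assay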
Description: SANGER: Inhibition of human AGS cell growth in a cell viability assay.

TALL-1 = assay: cells; assay type: functional, cell-based, Homo sapiens; settings: Homo sapiens, TALL-1;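 note: growth inhibition of cultured human TALL-1 cells, read out by a cell viability assay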
Description: SANGER: Inhibition of human TALL-1 cell growth in a cell viability assay.

COLO-792 = assay: cells; assay type: functional, cell-based; settings: Homo sapiens
Description: SANGER: Inhibition of human COLO-792 cell growth in a cell viability assay.

A 172 = assay: cells; assay type: functional, cell-based; settings: Homo sapiens;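 note: growth inhibition of A172 cells, measured with a cell viability readout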
Description: SANGER: Inhibition of human A172 cell growth in a cell viability assay.

SK-MM-2 = assay: cells; assay type: functional, cell-based, Homo sapiens; settings: Homo sapiens, SK-MM-2;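 note: growth inhibition of human SK-MM-2 cells, read out with a cell viability assay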
Description: SANGER: Inhibition of human SK-MM-2 cell growth in a cell viability assay.

SiHa = assay: cells; assay type: functional, cell-based; settings: Homo sapiens;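 note: Viability-based readout of growth inhibition in SiHa cells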
Description: SANGER: Inhibition of human SiHa cell growth in a cell viability assay.

KYSE-410 = assay: cells; assay type: functional, cell-based; settings: Homo sapiens;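 note: growth inhibition of KYSE-410 cells, measured through a cell viability readout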
Description: SANGER: Inhibition of human KYSE-410 cell growth in a cell viability assay.

SKG-IIIa = assay: cells; assay type: functional, cell-based; settings: Homo sapiens;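 note: cell growth inhibition, read out with a cell viability assay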
Description: SANGER: Inhibition of human SKG-IIIa cell growth in a cell viability assay.

HT-1080 = assay: cells; assay type: functional, cell-based; settings: Homo sapiens
Description: SANGER: Inhibition of human HT-1080 cell growth in a cell viability assay.

BT-20 = assay: cells; assay type: functional, cell-based; settings: Homo sapiens;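 note: cell viability assay measuring suppression of growth in human BT-20 cells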
Description: SANGER: Inhibition of human BT-20 cell growth in a cell viability assay.

D-336MG = assay: cells; assay type: functional, cell-based, Homo sapiens; settings: Homo sapiens, D-336MG
Description: SANGER: Inhibition of human D-336MG cell growth in a cell viability assay.

U-118-MG = assay: cells; assay type: functional, cell-based; settings: Homo sapiens
Description: SANGER: Inhibition of human U-118-MG cell growth in a cell viability assay.

HSC-4 = assay: cells; assay type: functional, cell-based; settings: Homo sapiens;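 note: growth inhibition of human HSC-4 cells, read out with a cell viability assay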
Description: SANGER: Inhibition of human HSC-4 cell growth in a cell viability assay.

G-361 = assay: cells; assay type: functional, cell-based; settings: Homo sapiens
COLO-680N = assay: cells; assay type: functional, cell-based; settings: Homo sapiens;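 note: cell viability assay used to measure inhibition of COLO-680N cell growth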
Description: SANGER: Inhibition of human COLO-680N cell growth in a cell viability assay.

NCI-H650 = assay: cells; assay type: functional, cell-based; settings: Homo sapiens;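 note: growth inhibition of NCI-H650 cells, read out by a viability assay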
Description: SANGER: Inhibition of human NCI-H650 cell growth in a cell viability assay.

KYSE-450 = assay: cells; assay type: functional, cell-based; settings: Homo sapiens;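 note: cell growth inhibition measured by a viability assay in human KYSE-450 cells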
Description: SANGER: Inhibition of human KYSE-450 cell growth in a cell viability assay.

8505C = assay: cells; assay type: functional, cell-based; settings: Homo sapiens
Description: SANGER: Inhibition of human 8505C cell growth in a cell viability assay.

SAS = assay: cells; assay type: functional, cell-based; settings: Homo sapiens;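 note: growth inhibition of SAS cells, read out with a cell viability assay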
Description: SANGER: Inhibition of human SAS cell growth in a cell viability assay.

RPMI 8402 = assay: SANGER: Inhibition of human RPMI-8402 cell growth in a cell viability assay.; assay type: functional, cell-based; settings: Homo sapiens, RPMI 8402
COR-L105 = assay: cells; assay type: functional, cell-based; settings: Homo sapiens
Description: SANGER: Inhibition of human COR-L105 cell growth in a cell viability assay.

EHEB = assay: cells; assay type: functional, cell-based; settings: Homo sapiens;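 note: growth inhibition of human EHEB cells, read out with a cell viability assay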
Description: SANGER: Inhibition of human EHEB cell growth in a cell viability assay.

SK-LU-1 = assay: cells; assay type: functional, cell-based; settings: Homo sapiens;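 note: cell viability assay measuring growth inhibition of human SK-LU-1 cells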
Description: SANGER: Inhibition of human SK-LU-1 cell growth in a cell viability assay.

NCI-H1522 = assay: cells; assay type: functional, cell-based, Homo sapiens; settings: Homo sapiens, NCI-H1522;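 note: growth inhibition of NCI-H1522 cells, read out with a cell viability assay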
Description: SANGER: Inhibition of human NCI-H1522 cell growth in a cell viability assay.

OE19 = assay: cells; assay type: functional, cell-based; settings: Homo sapiens;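 note: growth inhibition of OE19 cells, measured through a cell viability read-out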
Description: SANGER: Inhibition of human OE19 cell growth in a cell viability assay.

CP66-MEL = assay: cells; assay type: functional, cell-based; settings: Homo sapiens;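 note: growth inhibition of CP66-MEL cells determined in a cell viability assay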
Description: SANGER: Inhibition of human CP66-MEL cell growth in a cell viability assay.

GMS-10 = assay: cells; assay type: functional, cell-based; settings: Homo sapiens;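 note: growth inhibition of GMS-10 cells, read out as cell viability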
Description: SANGER: Inhibition of human GMS-10 cell growth in a cell viability assay.

KMS-12-PE = assay: cells; assay type: functional, cell-based, Homo sapiens; settings: Homo sapiens, KMS-12-PE;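 note: growth inhibition of human KMS-12-PE cells, measured with a cell viability assay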
Description: SANGER: Inhibition of human KMS-12-PE cell growth in a cell viability assay.

COLO-678 = assay: cells; assay type: functional, cell-based; settings: Homo sapiens
Description: SANGER: Inhibition of human COLO-678 cell growth in a cell viability assay.

BL-70 = assay: SANGER: Inhibition of human BL-70 cell growth in a cell viability assay.; assay type: functional, cell-based; settings: Homo sapiens, BL-70
MDA-MB-415 = assay: cells; assay type: functional, cell-based; settings: Homo sapiens
HuO9 = assay: cells; assay type: functional, cell-based; settings: Homo sapiens;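 note: growth inhibition of HuO9 cells, read out with a cell viability assay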
Description: SANGER: Inhibition of human HuO9 cell growth in a cell viability assay.

MDA-MB-361 = assay: cells; assay type: functional, cell-based; settings: Homo sapiens
MDA-MB-175-VII = assay: cells; assay type: functional, cell-based; settings: Homo sapiens
CP50-MEL-B = assay: cells; assay type: functional, cell-based; settings: Homo sapiens;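 note: growth inhibition of the human cell line, measured with a cell viability read-out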
Description: SANGER: Inhibition of human CP50-MEL-B cell growth in a cell viability assay.

KOSC-2 = assay: cells; assay type: functional, cell-based; settings: Homo sapiens;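 note: growth inhibition of KOSC-2 cells, read out by a cell viability assay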
Description: SANGER: Inhibition of human KOSC-2 cell growth in a cell viability assay.

YAPC = assay: cells; assay type: functional, cell-based; settings: Homo sapiens;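 note: growth inhibition of YAPC cells, measured with a cell viability assay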
Description: SANGER: Inhibition of human YAPC cell growth in a cell viability assay.

Hs-578T = assay: cells; assay type: functional, cell-based; settings: Homo sapiens
Description: SANGER: Inhibition of human Hs-578-T cell growth in a cell viability assay.

NUGC-3 = assay: cells; assay type: functional, cell-based; settings: Homo sapiens;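 note: growth inhibition of human NUGC-3 cells, read out with a cell viability assay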
Description: SANGER: Inhibition of human NUGC-3 cell growth in a cell viability assay.

TE-441-T = assay: cells; assay type: functional, cell-based, Homo sapiens; settings: Homo sapiens, TE-441-T
Description: SANGER: Inhibition of human TE-441-T cell growth in a cell viability assay.

RPMI-7951 = assay: cells; assay type: functional, cell-based; settings: Homo sapiens
Description: SANGER: Inhibition of human RPMI-7951 cell growth in a cell viability assay.

ST486 = assay: SANGER: Inhibition of human ST486 cell growth in a cell viability assay.; assay type: functional, cell-based; settings: Homo sapiens, ST486
NCI-H345 = assay: cells; assay type: functional, cell-based, Homo sapiens; settings: Homo sapiens, NCI-H345;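 note: growth inhibition of NCI-H345 cells measured with a cell viability assay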
Description: SANGER: Inhibition of human NCI-H345 cell growth in a cell viability assay.

NCI-H2009 = assay: cells; assay type: functional, cell-based; settings: Homo sapiens;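 note: cell viability assay measuring inhibition of NCI-H2009 cell growth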
Description: SANGER: Inhibition of human NCI-H2009 cell growth in a cell viability assay.

`O=S(=O)(O)c1ccc2cc(/N=N/c3cc(S(=O)(=O)O)c4cccnc4c3O)ccc2c1` was tested, and the IC50 (TE-15) was greater than 16 µM, the IC50 (OPM-2) was greater than 16 µM and the IC50 (SJRH30) was greater than 16 µM. The IC50 (PANC-03-27) was greater than 16 µM, the IC50 (HCC1419) was greater than 16 µM and the IC50 (SN12C) was greater than 16 µM. It also gave an IC50 (ESS-1) greater than 16 µM, an IC50 (NCI-H2171) greater than 16 µM and an IC50 (COLO-679) greater than 16 µM. The IC50 (KYSE-180) was greater than 16 µM, the IC50 (NCI-H1563) was greater than 16 µM and the IC50 (MC-CAR) was greater than 16 µM. For the same compound, the IC50 (CAL-12T) was greater than 16 µM, the IC50 (SW756) was greater than 16 µM and the IC50 (AN3-CA) was 14.1 µM. It also gave an IC50 (DBTRG-05MG) greater than 16 µM, an IC50 (AGS) greater than 16 µM and an IC50 (TALL-1) greater than 16 µM. For the same compound, the IC50 (COLO-792) was greater than 16 µM, the IC50 (A 172) was greater than 16 µM and the IC50 (SK-MM-2) was greater than 16 µM. It also gave an IC50 (SiHa) greater than 16 µM, an IC50 (KYSE-410) greater than 16 µM and an IC50 (SKG-IIIa) greater than 16 µM. It also gave an IC50 (HT-1080) greater than 16 µM, an IC50 (BT-20) greater than 16 µM and an IC50 (D-336MG) greater than 16 µM. The IC50 (U-118-MG) was greater than 16 µM, the IC50 (HSC-4) was greater than 16 µM and the IC50 (G-361) was greater than 16 µM. For the same compound, the IC50 (COLO-680N) was greater than 16 µM, the IC50 (NCI-H650) was greater than 16 µM and the IC50 (KYSE-450) was greater than 16 µM. For the same compound, the IC50 (8505C) was greater than 16 µM, the IC50 (SAS) was greater than 16 µM and the IC50 (RPMI 8402) was greater than 16 µM. It also gave an IC50 (COR-L105) greater than 16 µM, an IC50 (EHEB) greater than 16 µM and an IC50 (SK-LU-1) greater than 16 µM. It also gave an IC50 (NCI-H1522) greater than 16 µM, an IC50 (OE19) greater than 16 µM and an IC50 (CP66-MEL) greater than 16 µM. For the same compound, the IC50 (GMS-10) was greater than 16 µM, the IC50 (KMS-12-PE) was greater than 16 µM and the IC50 (COLO-678) was greater than 16 µM. The IC50 (BL-70) was greater than 16 µM, the IC50 (MDA-MB-415) was greater than 16 µM and the IC50 (HuO9) was greater than 16 µM. For the same compound, the IC50 (MDA-MB-361) was greater than 16 µM, the IC50 (MDA-MB-175-VII) was greater than 16 µM and the IC50 (CP50-MEL-B) was greater than 16 µM. It also gave an IC50 (KOSC-2) greater than 16 µM, an IC50 (YAPC) greater than 16 µM and an IC50 (Hs-578T) greater than 16 µM. For the same compound, the IC50 (NUGC-3) was greater than 16 µM, the IC50 (TE-441-T) was greater than 16 µM and the IC50 (RPMI-7951) was greater than 16 µM. The IC50 (ST486) was greater than 16 µM, the IC50 (NCI-H345) was greater than 16 µM and the IC50 (NCI-H2009) was greater than 16 µM.
